Experimental data reported in US10059713B2 (Takeda Pharmaceutical Company Limited, priority 2014, dated 2018).

The molecules below were run against human GPR43 (Homo sapiens (Human), UniProt O15552) (assay: Ca-Flux functional assay: determination of agonist/positive allosteric modulator (PAM) activity). Details: CHO-K1 Gα16 cells stably expressing human GPR43; compound added with EC20 sodium acetate; intracellular Ca2+ by FLIPR; does not distinguish agonist from PAM.
Assay type: cell-based
Outline: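 Agonist or PAM activity read as intracellular Ca2+ rise by FLIPR after adding compound plus EC20 acetate, acetate EC20 set from a prior curve. Cells: CHO-K1 Gα16 with stable human GPR43. EC50 from ten-point half-log curves starting 10 μM.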

Chain of human GPR43 (O15552 whole entry): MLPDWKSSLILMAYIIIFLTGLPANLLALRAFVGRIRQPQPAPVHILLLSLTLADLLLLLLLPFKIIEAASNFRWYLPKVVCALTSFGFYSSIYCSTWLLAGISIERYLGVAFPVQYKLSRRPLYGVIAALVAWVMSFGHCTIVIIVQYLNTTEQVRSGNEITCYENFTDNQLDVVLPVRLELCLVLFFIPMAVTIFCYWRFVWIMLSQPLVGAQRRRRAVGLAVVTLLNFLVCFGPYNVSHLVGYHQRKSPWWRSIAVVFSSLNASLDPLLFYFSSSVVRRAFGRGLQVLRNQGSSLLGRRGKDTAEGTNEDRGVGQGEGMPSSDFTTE

Structure (SMILES)	EC50
Nc1[nH]c2c(OC3CCC3)ncnc2c1S(=O)(=O)c1ccccc1 [Example 167, 7-(benzenesulfonyl)-4-cyclobutoxy-5H-pyrrolo[3,2-d]pyrimidin-6-amine]	0.076 µM
COc1cccc(S(=O)(=O)c2c(N)[nH]c3c(N4CCOC(C)C4)ncnc23)c1 (centres unmarked) [Example 154, 7-(3-methoxybenzenesulfonyl)-4-(2-methylmorpholin-4-yl)-5H-pyrrolo[3,2-d]pyrimidin-6-amine]	0.047 µM
COC1CCN(c2ncnc3c(S(=O)(=O)c4ccccc4)c(N)[nH]c23)CC1 [Example 28, 7-(benzenesulfonyl)-4-(4-methoxypiperidin-1-yl)-5H-pyrrolo[3,2-d]pyrimidin-6-amine]	0.647 µM
CC1CN(c2ncnc3c(S(=O)(=O)C4CCN(C(=O)OCc5ccccc5)CC4)c(N)[nH]c23)CCO1 (centres unmarked) [Example 206, benzyl 4-{[6-amino-4-(2-methylmorpholin-4-yl)-5H-pyrrolo[3,2-d]pyrimidin-7-yl]sulfonyl}piperidine-1-carboxylate]	2.64 µM
Nc1[nH]c2c(N3CCC(F)CC3)ncnc2c1S(=O)(=O)c1ccccc1 [Example 46, 7-(benzenesulfonyl)-4-(4-fluoropiperidin-1-yl)-5H-pyrrolo[3,2-d]pyrimidin-6-amine]	0.153 µM
Nc1[nH]c2c(C3CCCCC3)ncnc2c1S(=O)(=O)c1ccccc1 [Example 3, 7-(benzenesulfonyl)-4-cyclohexyl-5H-pyrrolo[3,2-d]pyrimidin-6-amine]	0.043 µM
CCC1CN(c2ncnc3c(S(=O)(=O)c4ccc(OC)cc4)c(N)[nH]c23)CCO1 (centres unmarked) [Example 190, 4-(2-ethylmorpholin-4-yl)-7-(4-methoxybenzenesulfonyl)-5H-pyrrolo[3,2-d]pyrimidin-6-amine]	0.125 µM
COc1ccc(S(=O)(=O)c2c(N)[nH]c3c(N4CCOC(C)C4)ncnc23)cc1 (centres unmarked) [Example 107, 7-(4-methoxybenzenesulfonyl)-4-(2-methylmorpholin-4-yl)-5H-pyrrolo[3,2-d]pyrimidin-6-amine]	0.041 µM
CCN(Cc1ccco1)c1ncnc2c(S(=O)(=O)c3ccccc3)c(N)[nH]c12 [Example 62, 7-(benzenesulfonyl)-4-N-ethyl-4-N-(furan-2-ylmethyl)-5H-pyrrolo[3,2-d]pyrimidine-4,6-diamine]	0.091 µM
Nc1[nH]c2c(N3CCO[C@@H](c4ccccc4)C3)ncnc2c1S(=O)(=O)c1ccccc1 [Example 134, 7-(benzenesulfonyl)-4-[(2S)-2-phenylmorpholin-4-yl]-5H-pyrrolo[3,2-d]pyrimidin-6-amine]	0.093 µM
Nc1[nH]c2c(O[C@@H]3CCOC3)ncnc2c1S(=O)(=O)c1ccccc1 [Example 159, 7-(benzenesulfonyl)-4-[(3R)-oxolan-3-yloxy]-5H-pyrrolo[3,2-d]pyrimidin-6-amine]	5.25 µM
CCN(C)c1ncnc2c(S(=O)(=O)c3ccccc3)c(N)[nH]c12 [Example 97, 7-(benzenesulfonyl)-4-N-ethyl-4-N-methyl-5H-pyrrolo[3,2-d]pyrimidine-4,6-diamine]	0.447 µM
Nc1[nH]c2c(-c3ccccc3)ncnc2c1S(=O)(=O)c1ccccc1 [Example 9, 7-(benzenesulfonyl)-4-phenyl-5H-pyrrolo[3,2-d]pyrimidin-6-amine]	0.048 µM
CN(CC1OCCO1)c1ncnc2c(S(=O)(=O)c3ccccc3)c(N)[nH]c12 [Example 93, 7-(benzenesulfonyl)-4-N-(1,3-dioxolan-2-ylmethyl)-4-N-methyl-5H-pyrrolo[3,2-d]pyrimidine-4,6-diamine]	9.51 µM
Nc1[nH]c2c(C3=CCCCC3)ncnc2c1S(=O)(=O)C1CCCCC1 [Example 50, 4-(cyclohex-1-en-1-yl)-7-(cyclohexanesulfonyl)-5H-pyrrolo[3,2-d]pyrimidin-6-amine]	0.08 µM

Further molecules by falling EC50, results first:

EC50	Structure (SMILES)
0.04 µM	CC(Oc1ncnc2c(S(=O)(=O)c3ccccc3)c(N)[nH]c12)C1CC1 (centres unmarked) [Example 170, 7-(benzenesulfonyl)-4-(1-cyclopropylethoxy)-5H-pyrrolo[3,2-d]pyrimidin-6-amine]
0.037 µM	Nc1[nH]c2c(C3CCCCC3)cncc2c1S(=O)(=O)c1ccccc1 [Example 32, 3-(benzenesulfonyl)-7-cyclohexyl-1H-pyrrolo[3,2-c]pyridin-2-amine]
0.032 µM	Cc1ccc(S(=O)(=O)c2c(N)[nH]c3c(C4=CCCCC4)ncnc23)cc1 [Example 42, 4-(cyclohex-1-en-1-yl)-7-[(4-methylbenzene)sulfonyl]-5H-pyrrolo[3,2-d]pyrimidin-6-amine]
0.021 µM	Nc1[nH]c2c(C3CCCC3)ncnc2c1S(=O)(=O)c1ccccc1F [Example 88, 4-cyclopentyl-7-(2-fluorobenzenesulfonyl)-5H-pyrrolo[3,2-d]pyrimidin-6-amine]
0.016 µM	Nc1[nH]c2c(C3=CCCCC3)ncnc2c1S(=O)(=O)c1ccccc1F [Example 38, 4-(cyclohex-1-en-t-yl)-7-[(2-fluorobenzene)sulfonyl]-5H-pyrrolo[3,2-d]pyrimidin-6-amine]
0.014 µM	Cc1nc(N2CCO[C@@H](C)C2)c2[nH]c(N)c(S(=O)(=O)c3ccccc3Cl)c2n1 [Example 261, 7-(2-chlorobenzenesulfonyl)-2-methyl-4-[(2S)-2-methylmorpholin-4-yl]-5H-pyrrolo[3,2-d]pyrimidin-6-amine]
0.012 µM	Nc1[nH]c2c(N3CCOC(C(F)(F)F)C3)ncnc2c1S(=O)(=O)c1ccccc1 (centres unmarked) [Example 141, 7-(benzenesulfonyl)-4-[2-(trifluoromethyl)morpholin-4-yl]-5H-pyrrolo[3,2-d]pyrimidin-6-amine]
0.009 µM	Cc1ccc(S(=O)(=O)c2c(N)[nH]c3c(N4CCOC(C)C4)ncnc23)c(F)c1 (centres unmarked) [Example 146, 7-(2-fluoro-4-methylbenzenesulfonyl)-4-(2-methylmorpholin-4-yl)-5H-pyrrolo[3,2-d]pyrimidin-6-amine]
0.008 µM	Cc1nc(N2CCOC(C)C2)c2[nH]c(N)c(S(=O)(=O)c3ccccc3F)c2n1 (centres unmarked) [Example 176, 7-(2-fluorobenzenesulfonyl)-2-methyl-4-(2-methylmorpholin-4-yl)-5H-pyrrolo[3,2-d]pyrimidin-6-amine]
0.006 µM	Cc1nc(N2CCOC(C)C2)c2[nH]c(N)c(S(=O)(=O)c3c(F)cccc3F)c2n1 (centres unmarked) [Example 263, 7-(2,6-difluorobenzenesulfonyl)-2-methyl-4-(2-methylmorpholin-4-yl)-5H-pyrrolo[3,2-d]pyrimidin-6-amine]
0.004 µM	COc1ccc(F)c(S(=O)(=O)c2c(N)[nH]c3c(N4CCOC(C)C4)nc(C)nc23)c1 (centres unmarked) [Example 267, 7-(2-fluoro-5-methoxybenzenesulfonyl)-2-methyl-4-(2-methylmorpholin-4-yl)-5H-pyrrolo[3,2-d]pyrimidin-6-amine]
0.003 µM	Cc1nc(N2CCO[C@H](C(F)(F)F)C2)c2[nH]c(N)c(S(=O)(=O)c3cc(F)ccc3F)c2n1 [Example 292]
0.002 µM	Cc1nc(N2CCO[C@@H](C)C2)c2[nH]c(N)c(S(=O)(=O)c3ccc(Cl)cc3F)c2n1 [Example 235, 7-(4-chloro-2-fluorobenzenesulfonyl)-2-methyl-4-[(2S)-2-methylmorpholin-4-yl]-5H-pyrrolo[3,2-d]pyrimidin-6-amine]
0.002 µM	COc1ccc(S(=O)(=O)c2c(N)[nH]c3c(N4CCOC(C)(C)C4)nc(C)nc23)c(F)c1 [Example 241, 4-(2,2-dimethylmorpholin-4-yl)-7-(2-fluoro-4-methoxybenzenesulfonyl)-2-methyl-5H-pyrrolo[3,2-d]pyrimidin-6-amine]
